Data reported in US20240335364A1, “COMPOSITIONS OF DICAFFEOYLQUINIC ACIDS WITH TOCOPHEROL” (SYMRISE AG, priority 2021, published 2024).

Columns and labels:
Type in all cases: cell-based, human
Details in all cases: nHEK, 24 h
DSC1 = assay: Modulation of DSC1 gene expression of keratinocytes (real-time qPCR, RQ); parameters: key: RQ: expression relative to DMSO vehicle control
Description: (§1) Neonatal human epidermal keratinocytes (nHEK) were cultivated in an EpiLife® medium (Gibco) including an HKGS kit (Gibco) with 5% CO2 at 37° C. in accordance with the supplier's instructions. The cells were treated for 24 hours, with 0.0005% of the different dicaffeoylquinic acids from above dissolved in DMSO and DMSO alone as the vehicle control. Genomic target expression levels in treated cells were measured using a quantitative Real-Time PCR comparison to vehicle control treatment.
(§2) RNA was isolated using Qiagen's RNeasy® Mini Kit. The total RNA concentrations were measured using Eppendorf's μCuvetteG 1.0 and BioPhotometer, by measuring the absorption at 260 nm. Purity control values such as E260/280 and E260/230 were calculated simultaneously. Reverse transcription was performed using the high-capacity RNA-to-cDNA kit of Applied Biosystems, in accordance with the supplier's instructions. Samples were treated in Biometra's PCR Thermocycler. For fast real-time qPCR, the cDNA was diluted with RNase-free water, and the TaqMan™ Fast Universal PCR Master Mix of Applied Biosystems was used. Quantitative real time PCR was performed using the StepOnePlus fast real-time PCR instrument by Applied Biosystems. Analysis was conducted using the StepOne software and […] (normalised to endogenous control […] expression). For upregulations, RQ values ≥2.5 are considered to be relevant.
(§3) Neonatal human epidermal keratinocytes (nHEK) were cultivated as described in Example 1 and treated for 24 hours with 0.0007% of the different monocaffeoylquinic acids. Afterwards fast real-time qPCR was performed as described in above using a customised gene array.
(§4) Neonatal human epidermal keratinocytes (nHEK) were cultivated as described in Example 1 and treated for 24 hours with 0.005% of the extract samples. Afterwards fast real-time qPCR was performed as described in above using a customized gene array.
(§5) Neonatal human epidermal keratinocytes (nHEK) were cultivated as described in Example 1 and treated for 24 hours with 4,5-dicaffeoylquinic acid (CAS number 14534-61-3, Phytolab GmbH & Co. KG) and (±)-α-tocopherol (CAS number 10191-41-0, synonym: Synonym: DL-α-Tocopherol, Vitamin E, Sigma-Aldrich, synthetic) alone and in combination. Afterwards fast real-time qPCR was performed as described in above using a customised gene array.
(§6) [formula] • With • A=RQ value by 4,5-dicaffeoylquinic acid at concentration x • B=RQ value by tocopherol at concentration y • C=RQ value by the combination of 4,5-dicaffeoylquinic acid at concentration x/2 and tocopherol at concentration y/2 • D=Factor for 4,5-dicaffeoylquinic acid=>0.5 (due to half concentration tested in the combination) • E=Factor for tocopherol=>0.5 (due to half concentration tested in the combination) • A SI=1 is obtained for additive activity of the two combined components, whereas a SI <1 proves antagonistic activity (observed efficacy is lower than additive) and SI >1 proves synergistic activity (observed efficacy is higher than additive).
(§7) Neonatal human epidermal keratinocytes (nHEK) were cultivated as described in Example 1 and treated for 24 hours with 3,4-dicaffeoylquinic acid (CAS number 57378-72-0, Phytolab GmbH & Co. KG) and (+)-α-tocopherol (CAS number 59-02-9, synonym: Synonym: D-α-tocopherol, Vitamin E, Sigma-Aldrich) alone and in combination. Afterwards fast real-time qPCR was performed as described in above using a customised gene array. For upregulations, RQ values ≥2.5 are considered to be relevant.
(§8) Neonatal human epidermal keratinocytes (nHEK) were cultivated as described above and treated for 24 hours with yarrow extract of example 3 (Achillea millefolium, freeze-dried fresh press juice of flowering aerials, cultivated in Germany) and (±)-α-tocopherol (CAS number 10191-41-0, synonym: Synonym: DL-α-Tocopherol, Vitamin E, Sigma-Aldrich, synthetic) alone and in two combinations. Afterwards fast real-time qPCR was performed as described in above using a customised gene array. […]

CRYAB = assay: Modulation of CRYAB gene expression of keratinocytes (real-time qPCR, RQ); parameters: key: relative quantity (RQ) vs DMSO vehicle-treated control
Description: as §1, §2, §3, §4, §5, §6
(§9) Neonatal human epidermal keratinocytes (nHEK) were cultivated as described above and treated for 24 hours with 3,5-dicaffeoylquinic acid (CAS number 2450-53-5, Phytolab GmbH & Co. KG) and D-α-tocopherol (CAS number 59-02-9, synonym: (+)-α-tocopherol, Vitamin E, trade name: Copherol® F 1300 C, BTC Europe GmbH) alone and in combination. Afterwards fast real-time qPCR was performed as described in above using a customised gene array.
as §8

OCLN = assay: Modulation of OCLN gene expression of keratinocytes (real-time qPCR, RQ); parameters: key: RQ: expression relative to DMSO vehicle control (qPCR)
Description: as §1, §2, §3, §4, §5, §6
(§10) Neonatal human epidermal keratinocytes (nHEK) were cultivated as described above and treated for 24 hours with yarrow extract of example 3 (Achillea millefolium, freeze-dried fresh press juice of flowering aerials, cultivated in Germany) and (±)-α-tocopherol (CAS number 10191-41-0, synonym: Synonym: DL-α-Tocopherol, Vitamin E, Sigma-Aldrich, synthetic) alone and in two combinations. Afterwards fast real-time qPCR was performed as described in above using a customised gene array.

DEFB1 = assay: Modulation of DEFB1 gene expression of keratinocytes (real-time qPCR, RQ); parameters: key: RQ = expression relative to DMSO vehicle control (qPCR)
Description: as §1, §2, §3, §5, §6, §10
as §10, with “(+)-α-tocopherol” for “(±)-α-tocopherol”, “59-02-9,” for “10191-41-0,”, “D-α-tocopherol,” for “DL-α-Tocopherol,”, “Sigma-Aldrich)” for “Sigma-Aldrich, synthetic)”, “combination.” for “two combinations.”

HSPB2 = assay: Modulation of HSPB2 gene expression of keratinocytes (real-time qPCR, RQ); parameters: key: relative quantity vs DMSO vehicle control (qPCR)
Description: as §1, §2, §3, §5, §6, §10

DSG1 = assay: Modulation of DSG1 gene expression of keratinocytes (real-time qPCR, RQ); parameters: key: relative quantity vs DMSO vehicle control (qPCR)
Description: as §1, §2, §3, §4, §5, §6, §7
as §9, with “array. […]” for “array.”

CLDN1 = assay: Modulation of CLDN1 gene expression of keratinocytes (real-time qPCR, RQ)
Description: as §1, §2, §3, §4, §5, §6, §7, §10

HSPB8 = assay: Modulation of HSPB8 gene expression of keratinocytes (real-time qPCR, RQ); parameters: key: RQ: expression relative to DMSO vehicle control (qPCR)
Description: as §1, §2, §3, §4, §5, §6, §10

Compound | RQ value DSC1 (DSC1; 0.0005%, Example 1) | RQ value CRYAB (CRYAB; 0.0005%, Example 1) | RQ value OCLN (OCLN; 0.0005%, Example 1) | RQ value DEFB1 (DEFB1; 0.0005%, Example 1) | RQ value HSPB2 (HSPB2; 0.0005%, Example 1) | RQ value DSG1 (DSG1; 0.0005%, Example 1) | RQ value CLDN1 (CLDN1; 0.0005%, Example 1) | RQ value HSPB8 (HSPB8; 0.0005%, Example 1) | also measured
O=C(/C=C/c1ccc(O)c(O)c1)O[C@@H]1C[C@](OC(=O)/C=C/c2ccc(O)c(O)c2)(C(=O)O)C[C@@H](O)[C@H]1O [1,5-Dicaffeoylquinic acid, 1,5-dicaffeoylquinic acid] | 7.6 | 7.2 | 2.2 | 2.4 | 2.4 | 5.3 | 2.4 | 2.8 | 
O=C(/C=C/c1ccc(O)c(O)c1)O[C@@H]1[C@H](O)C[C@@](O)(C(=O)O)C[C@H]1OC(=O)/C=C/c1ccc(O)c(O)c1 [3,4-Dicaffeoylquinic acid, 3,4-dicaffeoylquinic acid] | 25.8 | 18.7 | 4.2 | 3.5 | 4.9 | 14.9 | 5.1 | 7.3 | RQ value DSC1 (DSC1; 0.0006% alone, Example 5): 6.2; RQ value DSG1 (DSG1; 0.0006% alone, Example 5): 2.1; RQ value CLDN1 (CLDN1; 0.0006% alone, Example 5): 4.2
O=C(/C=C/c1ccc(O)c(O)c1)O[C@@H]1CC(O)(C(=O)O)C[C@@H](OC(=O)/C=C/c2ccc(O)c(O)c2)C1O (stereo partly shown) [3,5-Dicaffeoylquinic acid, 3,5-dicaffeoylquinic acid] | 20.5 | 16.5 | 3.5 | 3.4 | 6.1 | 12.2 | 4.7 | 6.2 | RQ value CRYAB (CRYAB; 0.0002% alone, Example 6): 2.7; RQ value DSG1 (DSG1; 0.0002% alone, Example 6): 2.4
O=C(/C=C/c1ccc(O)c(O)c1)O[C@@H]1C[C@](O)(C(=O)O)C[C@@H](O)[C@H]1O [3-caffeoyl-quinic acid, 3-Caffeoylquinic acid] |  |  |  |  |  |  |  |  | RQ value DSC1 (DSC1; 0.0007%, Example 2): 1.0; RQ value CRYAB (CRYAB; 0.0007%, Example 2): 0.9; RQ value OCLN (OCLN; 0.0007%, Example 2): 1.0; RQ value DEFB1 (DEFB1; 0.0007%, Example 2): 1.1; RQ value HSPB2 (HSPB2; 0.0007%, Example 2): 0.8; RQ value DSG1 (DSG1; 0.0007%, Example 2): 0.7; RQ value CLDN1 (CLDN1; 0.0007%, Example 2): 0.8; RQ value HSPB8 (HSPB8; 0.0007%, Example 2): 0.8
